Experimental data: publication PMC7290078, “Agonist bias and agonist‐dependent antagonism at corticotrophin releasing factor receptors” (Pharmacology Research & Perspectives, 2020)
Entries after “also recorded” stand apart in the source; their conditions may differ. No end group written: not given here.

What was measured:
[1] = system: calcitonin receptor; assay: Antagonism of calcitonin-mediated IP1 accumulation in Cos7 cells expressing the human calcitonin receptor; assay type: cell-based; settings: 100 µmol/L; n = 3
Source text: Plasmids containing hCRF1α and hCRF2α (GenBank accession numbers AY457172 and AY449734) were obtained from the cDNA Resource Centre (Bloomsburg University) and are referred to as CRF1 and CRF2 in this manuscript. Hemagglutinin (HA) epitope‐tagged human Calcitonin (CT) receptor (CT(a) splice variant) and myc‐tagged human RAMP1 were used as described previously. ^27 HA‐tagged human calcitonin receptor‐like receptor (CLR), N‐terminal FLAG‐tagged human RAMP3 and N‐terminal myc‐tagged human RAMP3 were a gift from Professor David Poyner (Aston University) and Professor Patrick Sexton (Monash University), respectively. […]
Cos7, HEK‐293S, and HEK‐293T cells were cultured as described previously. ^28 , ^29 Cos7 cells were originally supplied by the ATCC to Associate Professor Nigel Birch (University of Auckland). […] For transfection, cells were counted (Countess CounterTM; Life Technologies) and plated at a density of 20 000 cells per well in 96‐well plates. […]
(§1) The IP‐one Gq assay kit (Cisbio) was used to quantify accumulated myo‐inositol‐1‐phosphate (IP1), a by‐product of IP3 produced after receptor‐mediated Gαq activation in Cos7 and HEK‐293S cells. […] Fifteen microliters of sample was then transferred to a 384‐well optiplate and read by an Envision plate reader (PerkinElmer). IP1 concentrations were calculated from a standard curve generated in duplicate. […]

[2] = molecular target: T1, CRF2 receptor (hCRF2α) (Homo sapiens, UniProt Q13324); assay: Antagonism of agonist-mediated IP1 accumulation in Cos7 cells expressing CRF2 receptors; assay type: cell-based
T1 construct: host or cells: Cos7 cells, transient transfection (PEI), pcDNA3.0/3.1 vector
T1 sequence (Q13324 1-411): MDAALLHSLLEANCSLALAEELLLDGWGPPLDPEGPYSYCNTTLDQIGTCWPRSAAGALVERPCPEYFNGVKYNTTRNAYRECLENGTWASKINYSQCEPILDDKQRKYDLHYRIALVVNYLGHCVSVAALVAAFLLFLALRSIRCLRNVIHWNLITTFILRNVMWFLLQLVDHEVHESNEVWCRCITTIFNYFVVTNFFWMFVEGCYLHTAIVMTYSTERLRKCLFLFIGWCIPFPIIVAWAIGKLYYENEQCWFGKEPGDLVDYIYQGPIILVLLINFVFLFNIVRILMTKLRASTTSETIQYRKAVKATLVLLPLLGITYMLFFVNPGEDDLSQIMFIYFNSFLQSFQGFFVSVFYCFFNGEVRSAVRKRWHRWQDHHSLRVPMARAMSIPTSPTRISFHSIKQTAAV
Source text: Plasmids containing hCRF1α and hCRF2α (GenBank accession numbers AY457172 and AY449734) were obtained from the cDNA Resource Centre (Bloomsburg University) and are referred to as CRF1 and CRF2 in this manuscript. Hemagglutinin (HA) epitope‐tagged human Calcitonin (CT) receptor (CT(a) splice variant) and myc‐tagged human RAMP1 were used as described previously. ^27 HA‐tagged human calcitonin receptor‐like receptor (CLR), N‐terminal FLAG‐tagged human RAMP3 and N‐terminal myc‐tagged human RAMP3 were a gift from Professor David Poyner (Aston University) and Professor Patrick Sexton (Monash University), respectively. N‐terminal FLAG‐tagged human RAMP2 was used as described previously. ^28 All receptors and RAMPs were cloned in pcDNA3.0 or pcDNA3.1 plasmid vectors. All plasmid inserts were sequenced at the Centre for Genomics, Proteomics and Metabolomics (University of Auckland) and the sequences were verified prior to use.
Cos7, HEK‐293S, and HEK‐293T cells were cultured as described previously. ^28 , ^29 Cos7 cells were originally supplied by the ATCC to Associate Professor Nigel Birch (University of Auckland). HEK‐293S cells were a gift from Professor David Poyner (Aston University) and HEK‐293T cells a gift from Professor John Taylor (University of Auckland). Briefly, all cell lines were cultured in Dulbecco's Modified Eagle Medium (DMEM) supplemented with 8% heat inactivated fetal bovine serum (FBS) and maintained in a humidified incubator at 37°C with 5% CO2. For transfection, cells were counted (Countess CounterTM; Life Technologies) and plated at a density of 20 000 cells per well in 96‐well plates. […]
as §1

[3] = molecular target: T2, CRF1 receptor (hCRF1α) (Homo sapiens, UniProt P34998); assay: Antagonism of agonist-mediated cAMP accumulation in Cos7 cells expressing CRF1 receptors; assay type: cell-based; settings: for allosteric effect α / effect on agonist efficacy β: CRF1, operational model of allosterism; for antagonist potency (pKB): hCRF1α, global Schild analysis, mean ± SEM
T2 construct: host or cells: Cos7 cells, transient transfection (PEI), pcDNA3.0/3.1 vector
T2 sequence (P34998 24-415): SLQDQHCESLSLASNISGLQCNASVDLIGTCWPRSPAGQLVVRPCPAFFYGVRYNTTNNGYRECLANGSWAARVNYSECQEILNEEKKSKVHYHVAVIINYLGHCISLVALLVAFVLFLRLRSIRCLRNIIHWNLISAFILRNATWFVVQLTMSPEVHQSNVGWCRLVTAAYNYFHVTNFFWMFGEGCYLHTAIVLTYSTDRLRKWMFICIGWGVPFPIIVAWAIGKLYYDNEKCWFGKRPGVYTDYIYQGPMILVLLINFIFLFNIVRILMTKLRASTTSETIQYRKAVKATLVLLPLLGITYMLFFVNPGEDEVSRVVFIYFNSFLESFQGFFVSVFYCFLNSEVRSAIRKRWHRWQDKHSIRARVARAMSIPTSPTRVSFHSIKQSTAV

[4] = system: CRF2 receptor; design: method as in PMID 11123370, PMID 12615952; settings: cited from earlier work

Row | Molecule | effect on IP1 accumulation at the calcitonin receptor [1] | effect on CRF‐mediated IP1 accumulation ([2]; 100 µmol/L, CRF2 receptor) | effect on agonist E max ([2]; IP1, CRF2 receptor, F tests) | antagonist potency (pKB) ([2]; agonist UCN1, IP1, hCRF2α, Gaddum method for insurmountable antagonism, mean ± SEM, n = 6) | partial agonism / intrinsic activity [3] | effect of pre‐incubation on antagonism ([3]; 75 minute pre‐incubation, preliminary cAMP antagonism experiment) | effect on agonist E max ([3]; CRF and UCN1‐mediated cAMP, CRF1 receptor, F tests) | allosteric effect α ([3]; agonist CRF, cAMP) | effect on agonist efficacy β ([3]; agonist CRF, cAMP) | antagonist potency (pKB) ([3]; agonist CRF, cAMP, n = 5) | allosteric effect α ([3]; agonist UCN1, cAMP) | effect on agonist efficacy β ([3]; agonist UCN1, cAMP) | antagonist potency (pKB) ([3]; agonist UCN1, cAMP, n = 5 (CP‐376,395), n = 3 (astressin2B)) | potency at CRF1 receptor compared to CRF2 receptor ([3]; antagonism of CRF‐induced cAMP signaling) | potency at CRF1 receptor compared to CRF2 receptor ([3]; antagonism of UCN1‐induced cAMP signaling) [fold] | mode of antagonism ([3]; cAMP accumulation) | binding affinity in words [4]
1 | CCC(CC)Nc1cc(C)nc(Oc2c(C)cc(C)cc2C)c1C [CP‐376,395] | no effect on IP1 accumulation at the calcitonin receptor | appeared to be abolished | a reduction in E max | 3.40 ± 0.29 | No intrinsic activity; also recorded: no evidence of partial agonism | did not increase antagonism or result in a reduction of E max | no significant difference in E max values | 0.005 | 0.63 | 6.90 ± 0.20 | 0.03 | 0.63 | 5.32 ± 0.14 | at least 800 fold | ≥ 20 | competitive antagonist of cAMP accumulation | –
2 | IVLSLDVPIGLLQILLEQARARAAREQATTNARILARVGHC-NH2 (C-terminus assumed) [UCN2] | – | – | – | – | – | – | – | – | – | – | – | – | – | – | – | – | high affinity
